The source of these data is ChEMBL document CHEMBL1129382, “Synthesis of chiral 1-(2'-amino-2'-carboxyethyl)-1,4-dihydro-6,7-quinoxaline-2,3-diones: alpha-amino-3-hydroxy-5-methyl-4-isoxazolepropionate receptor agonists and antagonists” (J Med Chem, 1996).

For experiment [1], the target named is Glutamate receptor ionotropic, kainate (Rattus norvegicus) (UniProt P22756+Q01812+P42260+P42264+Q63273). The experiment can be described thus: Displacement of [3H]- Kainate from Ionotropic glutamate receptor kainate of rat brain homogenates. The conditions noted are these: concentration not given here. The format is tissue-based. Also noted: concentration or dose not given beside the values. For orientation: Loss of bound radioactivity is the signal in a displacement assay; it reports binding, not function.

The target of experiment [2] is Glutamate receptor ionotropic, AMPA (Rattus norvegicus) (UniProt P19491+P19492+P19493+P19490). The experiment is described as follows: Displacement of [3H]- AMPA from Ionotropic glutamate receptor of rat brain. Also noted: concentration or dose not given beside the values. The conditions noted are these: concentration not given here.
Experiment [3] has as its target Glutamate receptor ionotropic, kainate. The experiment can be described thus: Inhibition of [3H]- Kainate binding to Ionotropic glutamate receptor kainate in brain homogenates. The format is tissue-based, Rattus norvegicus.
For experiment [4], the target named is Glutamate receptor ionotropic, AMPA (Rattus norvegicus, UniProt P19490+P19491+P19492+P19493). The experiment can be described thus: Compound (100 uM) was evaluated for inhibition of Ionotropic glutamate receptor AMPA by using [3H]- AMPA. The format is protein-complex assay.
The next experiment is filed under the species Rattus norvegicus. The experiment can be described thus: Functional antagonist activity was determined by the ability to inhibit AMPA stimulated [3H]norepinephrine release from rat hippocampal slices. The conditions noted are these: Hippocampus.

As for `Nc1ccccc1NC[C@@H](N)C(=O)O`, the inhibition in experiment [1] and in experiment [2] was 0% throughout.
Regarding `O=c1[nH]c2cc([N+](=O)[O-])c([N+](=O)[O-])cc2[nH]c1=O` [DNQX], the IC50 (commonly the point on the concentration scale where inhibition reaches its midpoint) in experiment [3] came out at 0.74 µM.
Turning to `Cc1cc2[nH]c(=O)c(=O)n(C(=O)[C@H](N)CO)c2cc1C`, the inhibition (in general, the change of the read-out against control, counted positive when it falls) in experiment [1] amounted to 15%; in experiment [2], 14%.
For the compound `N[C@H]1COC1=O`, the inhibition is 5% in experiment [1] and 11% in experiment [2].
The matching figures for `O=[N+]([O-])c1cc2nc(O)c(O)nc2cc1[N+](=O)[O-]`: 81% and 99%.
With `Cc1cc(N)c(NC(=O)[C@@H](CO)NC(=O)OC(C)(C)C)cc1C`, the IC50 came out at 11 µM in experiment [3] and 4 µM in experiment [4].
Consider `N[C@H](Cn1c(=O)c(=O)[nH]c2ccccc21)C(=O)O` [listing 1 of 3 here], for which the inhibition in experiment [1] came out at 5%; in experiment [2], 77%.
`Cc1cc2[nH]c(=O)c(=O)n(C(=O)[C@@H](CO)NC(=O)OC(C)(C)C)c2cc1C`: the values for the IC50 in experiment [3] and in experiment [4] were 11 µM and 12 µM, respectively.
As to `Cc1cc2[nH]c(=O)c(=O)n(C[C@H](N)C(=O)O)c2cc1C`, in experiment [3], the IC50 amounted to 51 µM. Also, the inhibition in experiment [1] worked out at 38%; in experiment [2], 66%. For the same compound, the EC50 (commonly the midpoint of the concentration-response curve) in the experiment listed under Rattus norvegicus was found to be 290 µM.
Consider `N[C@H](Cn1c(=O)c(=O)[nH]c2ccccc21)C(=O)O` [listing 2 of 3 here], for which the IC50 in experiment [3] was found to be 38 µM.
For `Cc1cc2[nH]c(=O)c(=O)n(C[C@H](CO)NC(=O)OC(C)(C)C)c2cc1C`, the IC50 in experiment [3] was determined as 5 µM; in experiment [4], 47 µM.
As to `Cc1cc(N)c(NC[C@@H](N)C(=O)O)cc1C`, the results for the inhibition in experiment [1] and in experiment [2] were 0% and 15%, respectively.
Regarding `Cc1cc2[nH]c(=O)c(=O)n(C[C@@H](N)C(=O)O)c2cc1C`, in experiment [3], the half-inhibitory concentration (IC50) was found to be 22 µM. Also, the inhibition came out at 27% in experiment [1] and 62% in experiment [2]. Further, the EC50 in the experiment filed under Rattus norvegicus came to 300 µM.
On to `Cc1cc2[nH]c(=O)n(C(=O)[C@@H](N)CO)c2cc1C`, for which the inhibition in experiment [1] was determined as 13%; in experiment [2], 21%.
As to `N[C@@H]1COC1=O`, the inhibition is 4% in experiment [1] and 0% in experiment [2].
For `Cc1cc(N)c(NC[C@H](N)C(=O)O)cc1C`, in that order: 7% and 15%.
In experiment [3], `N[C@H](Cn1c(=O)c(=O)[nH]c2ccccc21)C(=O)O` [listing 3 of 3 here] had an IC50 of 0.69 µM.
As for `Nc1ccccc1NC[C@H](N)C(=O)O`, the values for the inhibition in experiment [1] and in experiment [2] were 14% and 70%, respectively.
With `Cc1cc2[nH]c(=O)c(=O)n(C(=O)[C@@H](N)CO)c2cc1C`, the values for the inhibition in experiment [1] and in experiment [2] were 16% and 24%, respectively.
As to `N[C@@H](Cn1c(=O)c(=O)[nH]c2ccccc21)C(=O)O`, the IC50 in experiment [3] was 0.23 µM. The inhibition turned out to be 27% in experiment [1] and 95% in experiment [2].
